The values that follow come from ChEMBL document CHEMBL2346633, “Design, synthesis, and binding mode prediction of 2-pyridone-based selective CB2 receptor agonists” (Bioorg Med Chem, 2013).

The target in assay [1] is T1, Cannabinoid receptor 2 (Homo sapiens, UniProt P34972). The assay is described as follows: Displacement of [H3]-CP-55940 from human recombinant CB2 receptor expressed in CHO cells. Type of assay: cell-based.
Assay [2] addresses T1, Cannabinoid receptor 2. The assay is described as follows: Agonist activity at human recombinant CB2 receptor expressed in CHO cells assessed as inhibition of forskolin-induced accumulation of cAMP. It counts as functional, cell-based.
The next assay concerns the target Cannabinoid receptor 1 (Homo sapiens, UniProt P21554). The assay is described as follows: Displacement of [H3]-CP-55940 from human recombinant CB1 receptor expressed in CHO cells. It counts as cell-based.
The next assay is filed under the species Homo sapiens. The assay is described as follows: Selectivity ratio of Ki for human recombinant CB1 receptor to Ki for human recombinant CB2 receptor.

Cannabinoid receptor 1, sequence (P21554 whole entry, looked up): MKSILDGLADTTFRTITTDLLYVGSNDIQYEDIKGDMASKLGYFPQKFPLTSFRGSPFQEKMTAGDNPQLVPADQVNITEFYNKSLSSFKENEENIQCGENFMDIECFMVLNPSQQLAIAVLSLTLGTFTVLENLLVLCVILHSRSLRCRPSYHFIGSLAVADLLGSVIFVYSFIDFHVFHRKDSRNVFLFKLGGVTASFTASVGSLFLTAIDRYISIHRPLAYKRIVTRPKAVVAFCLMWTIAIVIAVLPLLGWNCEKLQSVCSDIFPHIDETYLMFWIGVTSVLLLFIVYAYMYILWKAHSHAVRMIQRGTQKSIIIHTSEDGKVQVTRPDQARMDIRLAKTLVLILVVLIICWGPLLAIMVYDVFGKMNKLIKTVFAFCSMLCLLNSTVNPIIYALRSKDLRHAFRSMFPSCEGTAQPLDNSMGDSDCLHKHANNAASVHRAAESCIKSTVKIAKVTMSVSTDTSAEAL
T1 sequence (P34972 whole entry): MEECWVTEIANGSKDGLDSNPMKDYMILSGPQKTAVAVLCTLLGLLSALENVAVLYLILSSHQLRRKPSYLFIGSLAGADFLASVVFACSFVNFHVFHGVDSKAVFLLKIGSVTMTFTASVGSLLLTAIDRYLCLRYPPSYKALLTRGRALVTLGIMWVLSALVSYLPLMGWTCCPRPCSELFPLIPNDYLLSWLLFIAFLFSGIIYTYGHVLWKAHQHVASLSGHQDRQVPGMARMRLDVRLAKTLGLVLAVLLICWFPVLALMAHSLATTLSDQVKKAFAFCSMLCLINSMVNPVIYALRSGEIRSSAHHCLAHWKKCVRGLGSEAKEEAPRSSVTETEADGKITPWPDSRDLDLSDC

Regarding `CCn1c(C)c(C)cc(Oc2nc3ccccc3o2)c1=S`, the Ki (in general, the dissociation constant of the complex between target and ligand, obtained from inhibition or displacement) at Cannabinoid receptor 2 [1] is 3850 nM. Still for that read-out and setting: under `CCCn1c(C)c(C)cc(Oc2nc3ccccc3o2)c1=S` stands 276 nM.

With `CCCCn1c(C)c(C)cc(NC(=O)c2ccccc2C)c1=O`, on Cannabinoid receptor 2 [2], the IC50 (in general, the midpoint of a concentration-inhibition curve) amounted to 13 nM. The Ki at Cannabinoid receptor 1 came out at 390 nM. As for `CCCCn1ccc(C)c(Oc2nc3ccccc3o2)c1=S`, on Cannabinoid receptor 2 [1], the Ki amounted to 235 nM.

With `CCCCn1c(C)c(C)cc(NC(=O)Cc2ccccc2)c1=O`, the Ki at Cannabinoid receptor 2 [1] is 1310 nM; on Cannabinoid receptor 1, greater than 5000 nM. On to `CCCCn1c(C)c(C)cc(NC(=O)c2ccccc2Cl)c1=O`, for which, on Cannabinoid receptor 1, the Ki was 391 nM. As for `CCCCn1c(C)c(C)cc(NC(=O)c2cccc(C)c2)c1=O`, the inhibition constant (Ki) on Cannabinoid receptor 2 [1] was 42 nM; on Cannabinoid receptor 1, 343 nM. For the compound `CCCCCCn1c(C)c(C)cc(Oc2nc3ccccc3o2)c1=S`, the Ki on Cannabinoid receptor 2 [1] was 609 nM.

Consider `CCCCn1c(C)c(C)cc(NC(=O)c2cccc3ccccc23)c1=O`, for which, in the assay filed under Homo sapiens, the Ratio Ki stood at 1.6. The Ki at Cannabinoid receptor 2 [1] amounted to 12 nM; at Cannabinoid receptor 1, 19 nM. Consider `CCCCn1c(C)c(C)cc(NC(C)=O)c1=O`, for which the Ki on Cannabinoid receptor 2 [1] and on Cannabinoid receptor 1 was greater than 5000 nM throughout. On to `CCCCn1c(C)c(C)cc(Oc2nc3ccccc3o2)c1=O`, for which the Ki on Cannabinoid receptor 2 [1] was determined as 976 nM.

In the case of `CCCCCn1c(C)c(C)cc(Oc2nc3ccccc3o2)c1=S`, the Ki at Cannabinoid receptor 2 [1] came to 214 nM. On to `CCCCn1c(C)c(C)cc(NC(=O)c2ccc(C)cc2)c1=O`, for which the Ki on Cannabinoid receptor 2 [1] was 72 nM; on Cannabinoid receptor 1, 854 nM. The like results for `CCCCn1c(C)c(C)cc(NC(=O)c2ccccc2F)c1=O` were, in that order, 88 nM and 617 nM. As for `CN1CCCCC1Cn1cc(C(=O)c2cc([N+](=O)[O-])ccc2I)c2ccccc21` (stereo unspecified), the Ratio Ki in the assay filed under Homo sapiens turned out to be 80. As for `CCCCn1c(C)c(C)cc(NC(=O)c2ccc3ccccc3c2)c1=O`, the Ki at Cannabinoid receptor 2 [1] was 768 nM; on Cannabinoid receptor 1 it was greater than 5000 nM. As for `CCCCn1cc(C)cc(Oc2nc3ccccc3o2)c1=S`, the Ki at Cannabinoid receptor 2 [1] was found to be 236 nM.

As to `CCCCn1cccc(Oc2nc3ccccc3o2)c1=S`, on Cannabinoid receptor 2 [1], the Ki came to 490 nM.

`CCN1C(=O)C(Sc2nc3ccccc3o2)c2ccccc2C1C` (stereo unspecified): the Ki at Cannabinoid receptor 2 [1] was 42 nM; on Cannabinoid receptor 1, greater than 5000 nM.

Take `CCCCn1c(C)c(C)cc(NC(=O)c2ccccc2)c1=O`: the Ki on Cannabinoid receptor 2 [1] came out at 89 nM; on Cannabinoid receptor 1, 1380 nM.
